Laboratory results published in patent US20100099762A1, “COMBINATION THERAPY” (THE MENTAL HEALTH RESEARCH INSTITUTE OF VICTORIA, priority 2006, published 2010).
Entries after “also recorded” stand apart in the source; their conditions may differ.

Tested on: total glutathione levels
Test: Total glutathione in striatum and liver of rats after CHX depletion
Assay type: in vivo, Sprague-Dawley rats
Details: CHX 75 mg/kg i.p.
Procedure: Male Sprague-Dawley rats aged nine weeks and weighing an average of 390 g, were used in the study. Animals were maintained on a twelve hour light-dark cycle with water and food ad libitum. Two animals were housed per cage with room temperature maintained at 22° C.
All pharmacological agents were administered by intraperitoneal injection (i.p.) in a volume of 1 ml/kg, except where otherwise stated. All agents were prepared using saline as a diluent. Brain GSH depletion was performed using cyclohexene-1-one (CHX), administered at 75 mg/kg. Animals were returned to their cage for 90 minutes prior to administration of N-acetyl cysteine (NAC) or N-acetyl cysteine amide (NACA or “AD4”). Animals were killed by decapitation 1 hour after NACA or NAC treatment.
Frontal cortex, striatum and liver samples were immediately excised on ice, weighed and sonicated in SSA buffer (5% sulfosalicylic acid in 100 mM disodium hydrogen orthophosphate, 100 mM sodium dihydrogen orthophosphate and 1 mM EDTA, pH 7.5, 5 mL/g wet tissue). The samples were subsequently centrifuged (22×10^3 g for 10 minutes, 4° C.) and the […] was taken and frozen at −80° C. until analysed.
Total glutathione levels (μmol GSH/gram tissue) were determined in all samples. Samples were assayed according to Baker et al. (1990). Reduced glutathione standards ranging from 0 to 320 ρmol of GSH in 50 μL were prepared in a background buffer identical to the samples (SSA buffer) and then treated in parallel with samples. 50 μl of sample or standard was placed on a 96-well microtiter plate with 100 μL of assay reagent (final concentration in well; 0.15 mM DTNB, 0.2 mM NADPH, 1.0 U glutathione reductase/mL). Plates were assayed for a total of 2 minutes at 414 nm using a Multiskan MCC/340 MK II plate reader and Genesis V3.05 computer software. All chemicals were purchased from Sigma-Aldrich. Statistical evaluation of the data was conducted using analysis of variance (ANOVA).

O=C1C=CCCC1 [CHX, cyclohexene-1-one]
Total glutathione levels in the brain striatum: significant decrease; also recorded: depleted | Total glutathione levels in the liver: significant decrease; also recorded: depleted
